pEC50: −log10 of the molar value.
What was measured:
[1] = Binding affinity to LEDGF/p75 binding pocket of integrase in HIV-1 NL432 infected in human MT4 cells assessed as allosteric inhibition of IN-LEDGF/p75 interaction by measuring inhibition of virus-induced cytopathicity measured after 4 days by MTT assay; format: cell-based; conditions: Human immunodeficiency virus 1, NL432, MT4, 96 h
[2] = Cytotoxicity against human MT4 cells assessed as reduction in cell viability measured after 4 days by MTT assay; format: cell-based; conditions: time 4 day
[3] = Total clearance in Sprague-Dawley rat at 0.5 mg/kg, iv and 1 mg/kg, po administered as cassette dosing measured for 24 hrs by LC-MS/MS analysis; format: ADME, organism-based; conditions: in vivo
[4] = Oral bioavailability in Sprague-Dawley rat 1 mg/kg administered as cassette dosing measured for 24 hrs by LC-MS/MS analysis; format: ADME, organism-based; conditions: in vivo
[5] = Metabolic stability in human liver microsomes assessed as parent compound remaining at 0.5 uM incubated for 30 mins by LC-MS/MS analysis; format: ADME, Microsome; conditions: read-out: Stabilty
[6] = Half-life in Sprague-Dawley rat at 0.5 mg/kg, iv and 1 mg/kg, po administered as cassette dosing measured for 24 hrs by LC-MS/MS analysis; format: ADME, organism-based; conditions: in vivo
[7] = AUC in Sprague-Dawley rat at 0.5 mg/kg, iv measured for 24 hrs by LC-MS/MS analysis; format: ADME, organism-based; parameters: dose 0.5 mg/kg, time 24 hrs; conditions: in vivo
[8] = Metabolic stability in rat liver microsomes assessed as parent compound remaining at 0.5 uM incubated for 30 mins by LC-MS/MS analysi; format: ADME, Microsome; conditions: read-out: Stabilty

Compound | pEC50 [1] | CC50 at 96 h [2] [nM] | other results
Cc1ccc(-c2c(C)c(-c3ccccc3)c(C(OC(C)(C)C)C(=O)O)c(C)c2NS(C)(=O)=O)cc1C (centres undefined) | 7.47 | > 50000 | 
Cc1ccc(-c2c(C)c(-c3ccc4c(c3)CCCO4)c(C(OC(C)(C)C)C(=O)O)c(C)c2NS(C)(=O)=O)cc1C (centres undefined) | 7.66 | 28000 | 
Cc1ccc(-c2c(C)c(-c3ccc(Cl)c(F)c3)c(C(OC(C)(C)C)C(=O)O)c(C)c2NS(C)(=O)=O)cc1C (centres undefined) | 7.59 | 22000 | 
CCC(=O)Nc1c(C)c(C(OC(C)(C)C)C(=O)O)c(-c2ccc(C)c(C)c2)c(C)c1-c1ccc(C)c(C)c1 (centres undefined) | 7.72 | 15000 | 
CNC(=O)Nc1c(C)c(C(OC(C)(C)C)C(=O)O)c(-c2ccc(C)c(C)c2)c(C)c1-c1ccc(C)c(C)c1 (centres undefined) | 7.11 | 20000 | 
CCNC(=O)Nc1c(C)c(C(OC(C)(C)C)C(=O)O)c(-c2ccc(C)c(C)c2)c(C)c1-c1ccc(C)c(C)c1 (centres undefined) | 7.43 | 15000 | 
Cc1ccc(-c2c(C)c(-c3ccc(C)c(C)c3)c(C(OC(C)(C)C)C(=O)O)c(C)c2NC(=O)Nc2ccccc2)cc1C (centres undefined) | 7.54 | 8000 | 
CC(=O)Nc1c(C)c(C(OC(C)(C)C)C(=O)O)c(-c2ccc(C)c(C)c2)c(C)c1-c1ccc(C)c(C)c1 (centres undefined) | 7.72 | 19000 | 
Cc1ccc(-c2c(C)c(-c3ccc4c(c3C)CCCO4)c(C(OC(C)(C)C)C(=O)O)c(C)c2NS(C)(=O)=O)cc1C (centres undefined) | 8.41 | 24000 | clearance [3]: 6.99 mL/min/kg; bioavailability [4]: 36%; remaining at 0.5 h, 0.5 µM [5]: 59%; half-life [6]: 3.1 h; AUC at 24 h [7]: 1190 ng·h/mL; remaining at 0.5 h, 0.5 µM [8]: 61%
Cc1ccc(-c2c(C)c(-c3ccc(C)c(C)c3)c(C(OC(C)(C)C)C(=O)O)c(C)c2NCc2ccccc2)cc1C (centres undefined) | 6.32 | 4000 | 
Cc1ccc(-c2c(C)c(-c3ccc(Cl)cc3)c(C(OC(C)(C)C)C(=O)O)c(C)c2NS(C)(=O)=O)cc1C (centres undefined) | 7.96 | 26000 | 
Cc1ccc(-c2c(C)c(-c3ccc(C)c(C)c3)c(C(OC(C)(C)C)C(=O)O)c(C)c2NS(=O)(=O)c2ccccc2)cc1C (centres undefined) | 7.48 | 11000 | 
Cc1ccc(-c2c(C)c(-c3ccc4c(c3)N(C)CCO4)c(C(OC(C)(C)C)C(=O)O)c(C)c2NS(C)(=O)=O)cc1C (centres undefined) | 7.51 | 31000 | 
CNc1c(C)c(C(OC(C)(C)C)C(=O)O)c(-c2ccc(C)c(C)c2)c(C)c1-c1ccc(C)c(C)c1 (centres undefined) | 7.51 | 8800 | 
Cc1ccc(-c2c(C)c(-c3ccc4c(c3)CCO4)c(C(OC(C)(C)C)C(=O)O)c(C)c2NS(C)(=O)=O)cc1C (centres undefined) | 7.46 | 38000 | 
Cc1ccc(-c2c(C)c(-c3ccc(C)c(C)c3)c(C(OC(C)(C)C)C(=O)O)c(C)c2NS(C)(=O)=O)cc1C (centres undefined) | 7.96 | 15000 | 
Cc1ccc(-c2c(C)c(-c3ccc(C)c(C)c3)c(C(OC(C)(C)C)C(=O)O)c(C)c2NS(=O)(=O)C2CC2)cc1C (centres undefined) | 7.54 | 11000 | 
Cc1ccc(-c2c(C)c(-c3ccc(C)c(C)c3)c(C(OC(C)(C)C)C(=O)O)c(C)c2N)cc1C (centres undefined) | 7.57 | 12000 | 
Cc1ccc(-c2c(C)c(-c3ccc4c(c3)NCCO4)c(C(OC(C)(C)C)C(=O)O)c(C)c2NS(C)(=O)=O)cc1C (centres undefined) | 6.48 | 42000 | 
Cc1nc2ccccc2c(-c2ccc3c4c(ccnc24)CCO3)c1[C@H](OC(C)(C)C)C(=O)O [BI-224436] | 7.25 | > 50000 | clearance [3]: 1.09 mL/min/kg; bioavailability [4]: 64%; remaining at 0.5 h, 0.5 µM [5]: 98%; half-life [6]: 4.2 h; AUC at 24 h [7]: 7680 ng·h/mL; remaining at 0.5 h, 0.5 µM [8]: 100%
Cc1ccc(-c2c(C)c(-c3ccc(C)c(C)c3)c(C(OC(C)(C)C)C(=O)O)c(C)c2NC(=O)c2ccccc2)cc1C (centres undefined) | 7.29 | 9100 | 
